± gives the expanded uncertainty stated by the source.
Assays:
[1] = 101.33 kPa, Liquid, Vibrating tube method
[2] = refractive index (Na D-line) (dimensionless); settings: 298.15 K; 101.33 kPa; Liquid; Pulfrich refractometry

Structure (SMILES): C1CCOC1 [tetrahydrofuran]
- mass density ([1]; 278.15 K): 903.68 ± 0.12 kg/m3
- mass density ([1]; 283.15 K): 898.309 ± 0.12 kg/m3
- mass density ([1]; 288.15 K): 892.903 ± 0.12 kg/m3
- mass density ([1]; 293.15 K): 887.471 ± 0.12 kg/m3
- mass density ([1]; 298.15 K): 882.005 ± 0.13 kg/m3
- mass density ([1]; 303.15 K): 876.513 ± 0.13 kg/m3
- mass density ([1]; 308.15 K): 870.981 ± 0.13 kg/m3
- mass density ([1]; 313.15 K): 865.414 ± 0.13 kg/m3
- mass density ([1]; 318.15 K): 859.81 ± 0.13 kg/m3
- refractive index [2]: 1.4048 ± 0.00012
